Eight molecules from patent US20070099912A1, “Pyrrolo[2,3-F] and [3,2-F]Isoquinolinone derivatives as 5-hydroxytryptamine-6 ligands” (Wyeth, priority 2005, published 2007) can be followed below.

Data set [1] has as its target human cloned 5-HT6 receptors (Homo sapiens, UniProt P50406).

pKi: −log10 of the molar value. Counter-ions that a name gives are not always drawn.

Sequence of human cloned 5-HT6 receptors (P50406 whole entry): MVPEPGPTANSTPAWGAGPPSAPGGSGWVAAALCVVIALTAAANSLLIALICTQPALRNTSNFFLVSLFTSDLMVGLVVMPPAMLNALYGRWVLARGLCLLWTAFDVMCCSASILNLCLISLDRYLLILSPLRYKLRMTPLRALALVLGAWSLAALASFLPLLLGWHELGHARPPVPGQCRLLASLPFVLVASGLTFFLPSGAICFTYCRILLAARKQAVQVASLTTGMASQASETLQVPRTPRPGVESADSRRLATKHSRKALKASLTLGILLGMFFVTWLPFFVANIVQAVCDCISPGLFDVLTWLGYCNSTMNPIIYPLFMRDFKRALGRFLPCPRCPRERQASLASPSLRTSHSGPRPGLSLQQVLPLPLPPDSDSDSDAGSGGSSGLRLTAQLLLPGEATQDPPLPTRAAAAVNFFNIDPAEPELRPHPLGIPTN

Broadly, the melting point is the temperature, or range, at which the solid turns liquid. The molecule `CN(C)CCCn1ccc2c3ccn(Cc4ccc(F)cc4)c(=O)c3ccc21` [Example 16, 3-[3-(dimethylamino)propyl]-7-(4-fluorobenzyl)-3,7-dihydro-6H-pyrrolo[3,2-f]isoquinolin-6-one] yielded a melting point of 49 to 51 °C. As a reminder, the pKi is the negative decadic logarithm of the Ki, by convention in mol/L. The low end stands for a large Ki, the high end for a small Ki. Consider `CN(C)CCn1ccc2c3ccn(Cc4ccc(F)cc4)c(=O)c3ccc21` [Example 14, 3-[2-(dimethylamino)ethyl]-7-(4-fluorobenzyl)-3,7-dihydro-6H-pyrrolo[3,2-f]isoquinolin-6-one], for which the melting point was in the range of 221 to 223 °C. In data set [1], this molecule gave a pKi of 6.42.

`NCCn1ccc2ccc3c(=O)n(Cc4ccccc4)ccc3c21` (as salt: hydrochloride) [Example 7, 1-(2-Aminoethyl)-7-benzyl-1,7-dihydro-6H-pyrrolo[2,3-f]isoquinolin-6-one hydrochloride] had a melting point of 153 to 154 °C.

As to `CN(C)CCn1ccc2ccc3c(=O)n(Cc4ccccc4)ccc3c21` [Example 6, 7-Benzyl-1-[2-(dimethylamino)ethyl]-1.7-dihydro-6H-pyrrolo[2,3-f]isoquinolin-6-one hydrochloride], in data set [1], the negative-log Ki (pKi) is 6.41. With `O=c1c2ccc3c(ccn3CCN3CCCC3)c2ccn1Cc1ccc(F)cc1` [Example 15, 7-(4-fluorobenzyl)-3-(2-pyrrolidin-1-ylethyl)-3,7-dihydro-6H-pyrrolo[3,2-f]isoquinolin-6-one], the melting point is 229 to 231 °C. The molecule further gave a negative-log Ki (pKi) in data set [1] of 6.29.

Turning to `NCCn1ccc2ccc3c(=O)n(Cc4ccccc4)ccc3c21` [Example 7, 1-(2-Aminoethyl)-7-benzyl-1,7-dihydro-6H-pyrrolo[2,3-f]isoquinolin-6-one hydrochloride], the negative logarithm of the Ki (pKi) in data set [1] was 6.74. As for `CN(C)CCn1ccc2ccc3c(=O)n(Cc4ccccc4)ccc3c21` (as salt: hydrochloride) [Example 6, 7-Benzyl-1-[2-(dimethylamino)ethyl]-1.7-dihydro-6H-pyrrolo[2,3-f]isoquinolin-6-one hydrochloride], the melting point is 100 to 102 °C. With `NCCn1ccc2c3ccn(Cc4ccc(F)cc4)c(=O)c3ccc21` [Example 13, 3-(2-aminoethyl)-7-(4-fluorobenzyl)-3,7-dihydro-6H-pyrrolo[3,2-f]isoquinolin-6-one], the melting point was 203 to 205 °C. The same molecule had a negative logarithm of the Ki (pKi) in data set [1] of 6.37.
